Measurements reported in patent US11986471B2, “Compounds and methods of use” (Tango Therapeutics, Inc., priority 2018, dated 2024).

Assays:
[1] = biological target: T1, PRMT5 (Homo sapiens, UniProt O14744); experiment: PRMT5 IC50 assay in the presence of SAM as cofactor; type: biochemical
T1 construct: purchased Viva (custom protein)
How it was run: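 Enzyme: human PRMT5. Conditions: plus SAM, plus MTA, or cofactor-free. Output: IC50 (μM); Ki via IC50/1.5 (SAM) or IC50/13.5 (MTA).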

[2] = system: HAP1 MTAP-deleted; experiment: SDMA in-cell western assay, HAP1 MTAP-deleted cell line; type: cell-based; settings: for IC50: Homo sapiens, HAP1 MTAP-deleted cell line; for MTAP Intact/Deleted Ratio: IC50 ratio HAP1 MTAP-intact / HAP1 MTAP-deleted
How it was run: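 Symmetric dimethylarginine (SDMA) levels were measured by in-cell western in MTAP-null HAP1 cells, one half of an MTAP-isogenic pair whose partner line expresses endogenous MTAP. Compound potency is reported as IC50.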

[3] = system: HAP1 MTAP-intact; experiment: SDMA in-cell western assay, HAP1 MTAP-intact cell line; type: cell-based; settings: Homo sapiens
How it was run: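 Symmetric dimethylarginine (SDMA) levels were measured by in-cell western in an isogenic HAP1 pair, one expressing endogenous MTAP and one MTAP-null, and IC50 values were derived for each line. Compounds whose IC50 ratio between the lines is 3-fold or more are classed as MTAP-selective.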

[4] = biological target: T1, PRMT5; experiment: PRMT5 IC50 assay in the presence of MTA as cofactor; type: biochemical; settings: for IC50: PRMT5, MTA as cofactor; for SAM/MTA Ratio: ratio between Ki in the presence of SAM and Ki in the presence of MTA
How it was run: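 IC50 against PRMT5 determined with SAM as cofactor, with no cofactor, and with MTA as cofactor. Ki derived as IC50/1.5 for the SAM assay and IC50/13.5 for the MTA assay; SAM Ki to MTA Ki ratio also reported.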

[5] = biological target: T1, PRMT5; experiment: PRMT5 IC50 assay with no cofactor; type: biochemical; settings: read-out: No Co-factor IC50
How it was run: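 Potency against PRMT5 is compared across cofactor states, where IC50 equals Ki×1.5 with SAM present and Ki×13.5 with MTA present.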

T1 sequence (O14744 whole entry): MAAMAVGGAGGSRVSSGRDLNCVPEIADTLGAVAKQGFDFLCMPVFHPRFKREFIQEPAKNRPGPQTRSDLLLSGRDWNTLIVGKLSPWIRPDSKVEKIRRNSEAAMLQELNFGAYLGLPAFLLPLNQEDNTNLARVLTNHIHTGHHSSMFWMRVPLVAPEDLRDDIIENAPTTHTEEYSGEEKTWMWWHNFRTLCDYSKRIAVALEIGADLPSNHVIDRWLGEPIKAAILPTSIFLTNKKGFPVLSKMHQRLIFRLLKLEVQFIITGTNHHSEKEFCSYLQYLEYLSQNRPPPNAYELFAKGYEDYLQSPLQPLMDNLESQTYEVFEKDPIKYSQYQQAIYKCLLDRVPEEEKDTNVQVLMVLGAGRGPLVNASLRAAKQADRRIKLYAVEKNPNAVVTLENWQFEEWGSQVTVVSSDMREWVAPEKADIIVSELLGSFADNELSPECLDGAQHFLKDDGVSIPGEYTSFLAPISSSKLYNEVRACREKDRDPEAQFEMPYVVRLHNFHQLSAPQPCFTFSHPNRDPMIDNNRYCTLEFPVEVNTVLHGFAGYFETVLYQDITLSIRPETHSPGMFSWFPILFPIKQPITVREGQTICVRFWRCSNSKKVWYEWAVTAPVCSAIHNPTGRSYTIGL
T1 sequence (Q9BQA1 whole entry partner): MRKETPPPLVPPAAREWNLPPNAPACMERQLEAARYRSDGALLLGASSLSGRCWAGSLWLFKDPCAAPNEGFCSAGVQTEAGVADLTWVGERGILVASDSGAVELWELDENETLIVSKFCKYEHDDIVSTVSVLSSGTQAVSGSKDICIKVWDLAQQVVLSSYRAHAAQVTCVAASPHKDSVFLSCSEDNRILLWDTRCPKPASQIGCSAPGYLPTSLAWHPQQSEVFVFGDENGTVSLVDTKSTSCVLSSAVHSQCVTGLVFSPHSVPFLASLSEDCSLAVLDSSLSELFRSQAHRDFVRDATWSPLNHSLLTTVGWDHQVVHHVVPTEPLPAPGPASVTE

Row | SMILES | IC50 [1] [nM] | IC50 [2] [nM] | MTAP Intact/Deleted Ratio [2] | IC50 [3] [nM] | IC50 [4] [nM] | SAM/MTA Ratio [4] | IC50 [5] [nM]
1 | Cc1ncoc1COc1ccc2c(c1C)CCN(C[C@@H](O)CNC(=O)c1cccc(NC3COC3)c1)C2 [Compound 375, N-[(2S)-2-hydroxy-3-{5-methyl-6-[(4-methyl-1,3-oxazol-5-yl)methoxy]-1,2,3,4-tetrahydroisoquinolin-2-yl}propyl]-3-[(oxetan-3-yl)amino]benzamide] | 500 to 5000 | ≥ 10000 | C* (an IC50 ratio of less than 3 fold between the IC50 in the HAP1 MTAP-intact cell line and the HAP1 MTAP-deleted cell line) | ≥ 10000 | 500 to 5000 | A (a Ki ratio greater than or equal to 10 fold between the Ki in the presence of SAM and the Ki in the presence of MTA) | ≥ 5000
2 | Cc1c(OCc2cnco2)ccc2c1CCN(C[C@@H](O)CNC(=O)c1cc(NC3CCC3)ncn1)C2 [Compound 376, 6-(cyclobutylamino)-N-[(2S)-2-hydroxy-3-{5-methyl-6-[(1,3-oxazol-5-yl)methoxy]-1,2,3,4-tetrahydroisoquinolin-2-yl}propyl]pyrimidine-4-carboxamide] | 500 to 5000 | ≥ 10000 | C* (an IC50 ratio of less than 3 fold between the IC50 in the HAP1 MTAP-intact cell line and the HAP1 MTAP-deleted cell line) | ≥ 10000 | 500 to 5000 | A (a Ki ratio greater than or equal to 10 fold between the Ki in the presence of SAM and the Ki in the presence of MTA) | ≥ 5000
3 | O=C(NC[C@H](O)CN1CCc2cc(OCc3cnco3)ccc2C1)c1cc(NC2CCC2)nc(N2CCN(C(=O)C3CC3)CC2)c1 [Compound 378, (S)-2-(cyclobutylamino)-6-(4-(cyclopropanecarbonyl)piperazin-1-yl)-N-(2-hydroxy-3-(6-(oxazol-5-ylmethoxy)-3N-dihydroisoquinolin-2(1H)-yl)propyl)isonicotinamide] | 50 to 500 | < 1000 | C* (an IC50 ratio of less than 3 fold between the IC50 in the HAP1 MTAP-intact cell line and the HAP1 MTAP-deleted cell line) | < 1000 | 50 to 500 | A (a Ki ratio greater than or equal to 10 fold between the Ki in the presence of SAM and the Ki in the presence of MTA) | 500 to 5000
4 | CC(=O)N1CC(Nc2cc(C(=O)NC[C@H](O)CN3CCc4cc(OCc5cnco5)ccc4C3)nc(C(C)(C)C)n2)C1 [Compound 379, (S)-6-((1-acetylazetidin-3-yl)amino)-2-(tert-butyl)-N-(2-hydroxy-3-(6-(oxazol-5-ylmethoxy)-3,4-dihydroisoquinolin-2(1H)-yl)propyl)pyrimidine-4-carboxamide] | 50 to 500 | < 1000 | C* (an IC50 ratio of less than 3 fold between the IC50 in the HAP1 MTAP-intact cell line and the HAP1 MTAP-deleted cell line) | < 1000 | 50 to 500 | A (a Ki ratio greater than or equal to 10 fold between the Ki in the presence of SAM and the Ki in the presence of MTA) | 500 to 5000
5 | CC(=O)N1CC(Nc2cc(C(=O)NC[C@H](O)CN3CCc4c(ccc(OCc5cnco5)c4Cl)C3)ccn2)C1 [Compound 380, (S)-2-((1-acetylazetidin-3-yl)amino)-N-(3-(5-chloro-6-(oxazol-5-ylmethoxy)-3,4-dihydroisoquinolin-2(1H)-yl)-2-hydroxypropyl)isonicotinamide] | 50 to 500 | ≥ 10000 | C* (an IC50 ratio of less than 3 fold between the IC50 in the HAP1 MTAP-intact cell line and the HAP1 MTAP-deleted cell line) | ≥ 10000 | 50 to 500 | A (a Ki ratio greater than or equal to 10 fold between the Ki in the presence of SAM and the Ki in the presence of MTA) | 500 to 5000
6 | Cc1ncoc1COc1ccc2c(c1Br)CCN(C[C@@H](O)CNC(=O)c1cccc(NC3COC3)c1)C2 [Compound 381, (S)—N-(3-(5-bromo-6-((4-methyloxazol-5-yl)methoxy)-3,4-dihydroisoquinolin-2(1H)-yl)-2-hydroxypropyl)-3-(oxetan-3-ylamino)benzamide] | 500 to 5000 | ≥ 10000 | C* (an IC50 ratio of less than 3 fold between the IC50 in the HAP1 MTAP-intact cell line and the HAP1 MTAP-deleted cell line) | ≥ 10000 | 500 to 5000 | A (a Ki ratio greater than or equal to 10 fold between the Ki in the presence of SAM and the Ki in the presence of MTA) | ≥ 5000
7 | O=C(NC[C@H](O)CN1CCc2c(ccc(OCc3cnco3)c2Cl)C1)c1ccnc(NC2CCCC2)c1 [Compound 382, (S)—N-(3-(5-chloro-6-(oxazol-5-ylmethoxy)-3,4-dihydroisoquinolin-2(1H)-yl)-2-hydroxypropyl)-2-(cxclopentylamino)isonicotinamide] | 50 to 500 | ≥ 10000 | C* (an IC50 ratio of less than 3 fold between the IC50 in the HAP1 MTAP-intact cell line and the HAP1 MTAP-deleted cell line) | ≥ 10000 | 50 to 500 | A (a Ki ratio greater than or equal to 10 fold between the Ki in the presence of SAM and the Ki in the presence of MTA) | 500 to 5000
8 | O=C(NC[C@H](O)CN1CCc2cc(OCc3cnco3)ccc2C1)c1cncc(NC2CCOCC2)c1 [Compound 383] | 500 to 5000 | ≥ 10000 | C* (an IC50 ratio of less than 3 fold between the IC50 in the HAP1 MTAP-intact cell line and the HAP1 MTAP-deleted cell line) | ≥ 10000 | 500 to 5000 | A (a Ki ratio greater than or equal to 10 fold between the Ki in the presence of SAM and the Ki in the presence of MTA) | ≥ 5000
9 | Cc1ncoc1COc1ccc2c(c1)CCN(C[C@@H](O)CNC(=O)c1cc(NC3CCC3)nc(N3CCOCC3)c1)C2 [Compound 384, 2-(cyclobutylamino)-N-[(2S)-2-hydroxy-3-{6-[(4-methyl-1,3-oxazol-5-yl)methoxy]-1,2,3,4-tetrahydroisoquinolin-2-yl}propyl]-6-(morpholin-4-yl)pyridine-4-carboxamide] | 50 to 500 | < 1000 | B* (an IC50 ratio greater than or equal to 3 fold but lower than 10 fold between the IC50 in the HAP1 MTAP-intact cell line and the HAP1 MTAP-deleted cell line) | < 1000 | 50 to 500 | A (a Ki ratio greater than or equal to 10 fold between the Ki in the presence of SAM and the Ki in the presence of MTA) | 500 to 5000
10 | CCN1CCN(c2nc(NC3COC3)cc(C(=O)NC[C@H](O)CN3CCc4c(ccc(OCc5ocnc5C)c4C)C3)n2)CC1 [Compound 385, 2-(4-ethylpiperazin-1-yl)-N-[(2S)-2-hydroxy-3-{5-methyl-6-[(4-methyl-1,3-oxazol-5-yl)methoxy]-1,2,3,4-tetrahydroisoquinolin-2-yl}propyl]-6-[(oxetan-3-yl)amino]pyrimidine-4-carboxamide] | 50 to 500 | 1000 to 10000 | C* (an IC50 ratio of less than 3 fold between the IC50 in the HAP1 MTAP-intact cell line and the HAP1 MTAP-deleted cell line) | ≥ 10000 | 50 to 500 | A (a Ki ratio greater than or equal to 10 fold between the Ki in the presence of SAM and the Ki in the presence of MTA) | ≥ 5000
11 | Cc1c(OCc2cnco2)ccc2c1CCN(C[C@@H](O)CNC(=O)c1ccnc(NC3CCN(S(C)(=O)=O)CC3)c1)C2 [Compound 386, (S)—N-(2-hydroxy-3-(5-methyl-6-(oxazol-5-ylmethoxy)-3N-dihydroisoquinolin-2(1H)-yl)propyl)-2-((1-(methylsulfonyl)piperidin-4-yl)amino)isonicotinamide] | 50 to 500 | 1000 to 10000 | C* (an IC50 ratio of less than 3 fold between the IC50 in the HAP1 MTAP-intact cell line and the HAP1 MTAP-deleted cell line) | ≥ 10000 | 50 to 500 | A (a Ki ratio greater than or equal to 10 fold between the Ki in the presence of SAM and the Ki in the presence of MTA) | 500 to 5000
12 | Cc1ncoc1COc1ccc2c(c1)CCN(C[C@@H](O)CNC(=O)c1cc(NC3COC3)nc(N3CCN(C)CC3)n1)C2 [Compound 387] | 50 to 500 | < 1000 | B* (an IC50 ratio greater than or equal to 3 fold but lower than 10 fold between the IC50 in the HAP1 MTAP-intact cell line and the HAP1 MTAP-deleted cell line) | 1000 to 10000 | 50 to 500 | A (a Ki ratio greater than or equal to 10 fold between the Ki in the presence of SAM and the Ki in the presence of MTA) | 500 to 5000
13 | Cc1ncoc1COc1ccc2c(c1)CCN(C[C@@H](O)CNC(=O)c1cc(NC3CCCCC3)ncn1)C2 [Compound 388, 6-(cyclohexylamino)-N-[(2S)-2-hydroxy-3-{6-[(4-methyl-1,3-oxazol-5-yl)methoxy]-1,2,3,4-tetrahydroisoquinolin-2-yl}propyl]pyrimidine-4-carboxamide] | 50 to 500 | < 1000 | B* (an IC50 ratio greater than or equal to 3 fold but lower than 10 fold between the IC50 in the HAP1 MTAP-intact cell line and the HAP1 MTAP-deleted cell line) | < 1000 | 50 to 500 | A (a Ki ratio greater than or equal to 10 fold between the Ki in the presence of SAM and the Ki in the presence of MTA) | ≥ 5000
